In paper PMC3189933, “Acylpeptide Hydrolase Inhibition as Targeted Strategy to Induce Proteasomal Down-Regulation” (PLoS ONE, 2011):
Blank lines part the entries; values can stand above or below the molecule they belong to. Where a SMILES comes first, the peptide text is derived from it. Where no end group is shown, it is not given here. The star is where a group is joined. Cbz = O=C(OCc1ccccc1)*

What was measured:
APEH in Caco-2 cells = assay: APEH activity in Caco-2 cells; details: differentiated Caco-2 cells
Method: Porcine liver APEH activity was measured spectrophotometrically using the chromogenic substrate acetyl-Ala-pNA (Bachem). The reaction mixture (1 mL) containing pure APEH (38 ng) or an appropriate amount of cell extract in 50 mM Tris-HCl buffer pH 7.5 (Tris Buffer), was preincubated at 37°C for 2 min. Then, 1 mM acetyl-Ala-pNA was added and the release of p-nitroanilide (ε410 = 8800 M-1 cm-1) was measured by recording the absorbance increase at 410 nm on a Cary 100 Scan (Varian) UV/Vis spectrophotometer, equipped with a thermostated cuvette compartment. APEH activity was expressed in IU. The APEHSs activity was measured using acetyl-Leu-pNA (0.1 mM) (Sigma) as substrate. The reaction mixture (1 mL) containing the appropriate amount of enzyme in 25 mM Tris-HCl buffer pH 7.5, was preincubated at 80°C for 2 min. Then, 0.1 mM acetyl-Leu-pNA was added and the release of p-nitroanilide was measured, following the standard assay procedure described above.
Caco-2 cells (ATCC) were cultivated in DMEM supplemented with 10% FBS, 1 mM glutamine and 100 units/mL penicillin-streptomycin at 37°C in a humidified 5% CO2 atmosphere. The cells were studied between passages 12 and 22. The cells were split using trypsin-EDTA solution and plated in 6-well plates at a density of 8×10^4 cells/mL and the medium was replaced every 2–3 days. Under these conditions, the cells reached visual confluence after 7 days and the differentiated stage two weeks later. The differentiated cells were incubated for 48 h with the different substances.
Following the treatments, the BHK and Caco-2 cells were washed three times with ice cold phosphate-buffered saline and collected immediately at 4°C in lysis buffer (1% Triton X-100, 0.1% SDS, 20 mM Tris-HCl, pH 8.0, 150 mM NaCl, 0.5% sodium deoxycholate and complete protease inhibitors [Roche]). The lysates were centrifuged at 10,000×g for 15 min at 4°C. The protein concentrations in the clear supernatants were determined (BCA protein assay reagent kit; Pierce) before their use in enzymatic assays or SDS–PAGE.

[1] = system: polyubiquitinylated proteins in Caco-2 cells; assay: Protein ubiquitinylation in Caco-2 cells (immunoblot); format: cell-based, human; details: 48 h, 200 µM SsCEI 4 or t10c12-CLA, mixture, 100 µM ebelactone, 10 µM MG132, species 66 kDa to 160 kDa
Description: The following antibodies were used: anti-APEH antibody (sc-102311; Santa Cruz Biotechnology); anti-NF-κB/p65 antibody (Thermo Scientific); anti-p21Waf1 antibody (Exbio); pan Ab-5 anti-actin antibody (clone ACTN05, Thermo Scientific); and monoclonal antibodies against polyubiquitinylated proteins conjugated with horseradish peroxidase (FK2H, Enzo, Life Science). The ΔF508CFTR-3HA protein was detected with an anti HA monoclonal antibody (Covance).

porcine APEH [2] = target: T1, porcine APEH (Sus scrofa, UniProt P19205); assay: Inhibition of porcine liver APEH, Ac-Ala-pNA substrate; format: biochemical; details: Ac-Ala-pNA, pre-incubated 30 min at 37°C
T1 construct: mammalian APEHs purified from both porcine liver and human colon carcinoma intestinal cells (Caco-2); purchased Takara; host or cells: porcine liver
T1 sequence (P19205 1-732): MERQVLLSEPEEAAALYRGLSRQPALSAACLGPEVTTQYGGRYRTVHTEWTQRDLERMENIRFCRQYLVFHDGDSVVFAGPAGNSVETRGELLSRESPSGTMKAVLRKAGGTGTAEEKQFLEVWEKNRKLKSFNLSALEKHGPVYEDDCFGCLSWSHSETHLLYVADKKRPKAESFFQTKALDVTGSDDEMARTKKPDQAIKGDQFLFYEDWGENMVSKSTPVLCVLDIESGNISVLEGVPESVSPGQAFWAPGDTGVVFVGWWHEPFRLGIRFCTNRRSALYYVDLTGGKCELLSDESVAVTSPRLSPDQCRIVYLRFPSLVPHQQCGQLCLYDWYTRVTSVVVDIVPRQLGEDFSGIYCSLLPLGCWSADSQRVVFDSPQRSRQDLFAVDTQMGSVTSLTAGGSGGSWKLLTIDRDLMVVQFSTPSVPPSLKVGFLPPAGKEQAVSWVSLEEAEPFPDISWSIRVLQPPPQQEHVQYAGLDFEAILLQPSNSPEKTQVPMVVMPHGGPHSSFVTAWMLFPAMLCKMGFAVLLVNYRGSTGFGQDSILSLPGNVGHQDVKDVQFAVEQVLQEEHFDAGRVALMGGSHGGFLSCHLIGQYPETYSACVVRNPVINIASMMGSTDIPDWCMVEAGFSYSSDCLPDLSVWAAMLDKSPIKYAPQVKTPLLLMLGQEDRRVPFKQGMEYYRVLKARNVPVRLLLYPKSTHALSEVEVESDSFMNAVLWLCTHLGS
Method: (§1) APEH activity was expressed in IU.
(§2) Protease inhibitor activities of the SsCEI peptides and the CLA isomers were carried out using a fixed amount of APEH or partially purified proteasome (3–5 nM and 0.12 mg/mL, respectively), and increasing the SsCEI and CLA isomer concentrations. Mixtures were pre-incubated for 30 min at 37°C before the addition of the substrate, and the enzymatic activities were followed as described above. Protease inhibitor activities of the SsCEI peptides and the CLA isomers were determined towards APEHSs. The protease and increasing concentrations of the inhibitors were mixed and preincubated for 30 min at 80°C before the addition of the specific substrate. The residual enzymatic activity was determined using the assay procedure described above.
(§3) All data were obtained from triplicate analyses of three different preparations. Data were presented as means ±S.D. Statistical analysis and IC50 values were calculated with the SigmaPlot 10.0 software through a non-linear curve-fitting method and using a simple binding isotherm equation. Groups were compared by Student's t test, and P<0.05 was considered as significant.

APEHSs = assay: Inhibition of S. solfataricus APEH (APEHSs), Ac-Leu-pNA substrate; format: biochemical, Sulfolobus solfataricus; details: increasing inhibitor concentrations, Ac-Leu-pNA, pre-incubated 30 min at 80°C
Method: as §1, §2, §3

Caco-2 cells = assay: LDH release cytotoxicity assay in Caco-2 cells; details: 48 h; for toxicity (LDH release) compared with MG132: 200 µM SsCEI 4 or t10c12-CLA, 100 µM ebelactone, MG132 10 µM
Method: The release of LDH was used as the marker for cell toxicity [48]. The culture supernatants were sampled at the end of the incubations and centrifuged (4,000×g, 5 min, and 4°C). Aliquots of the clear supernatant (10 µL) were incubated with 190 µL reaction buffer (200 mM Tris/HCl, pH 8.0, 0.7 mM p-iodonitrotetrazolium violet, 50 mM L-lactic acid, 0.3 mM phenazine methoxysulphate, 0.4 mM NAD,) for 30 min at 37°C. Absorbance was measured at 490 nm and the results were expressed as percentages of total LDH release from control cultures treated with 1% (w/v) Triton X-100 and calculated as: [(experimental value - blank value)/(total lysis -blank value)−100].

porcine APEH [3] = target: T1, porcine APEH; assay: APEH inhibition in a reaction mixture containing the entire set of proteases; format: biochemical; details: mixture with trypsin, α-chymotrypsin, elastase, carboxypeptidase Y, subtilisin, thrombin; data not shown
porcine APEH [4] = target: T1, porcine APEH; assay: RP-HPLC analysis of SsCEI 4 incubated with the target enzyme; format: in vitro ADME; details: 50 mM Tris pH 7.5, 37°C, up to 2 h, RP-HPLC C18, UV, printed 4 µM SsCEI 4 and 100 µM APEH
Method: The experiments were conducted at 37°C in 50 mM Tris buffer, pH 7.5. Solutions of SsCEI 4 and porcine APEH were incubated for up to 2 h at optimal concentrations (4 µM SsCEI 4 and 100 µM APEH) to guarantee a high degree of enzymatic inhibition. At specific time intervals, 195 µL aliquots were taken, and the reaction was stopped by addition of 5 µL TFA. The samples were then analysed directly by reverse-phase HPLC (Dionex BioLC) on a μBondapak C18 column (3.9×300 mm, Waters), eluted with a linear gradient (0–60% acetonitrile in 0.1% TFA) at a flow rate of 1 ml/min. Control peptide samples were incubated in the absence of the purified enzymes and run in parallel.

porcine APEH [5] = target: T1, porcine APEH; assay: Time-dependent inhibition of APEH; format: biochemical; details: pre-incubation at least 20 min at 37°C, then diluted 1:5 into assay mixture with substrate
Method: The time-dependent inhibition of SsCEI 4 and t10c12-CLA towards APEH was assessed. Mixtures containing appropriate amounts of each inhibitor and of APEH were pre-incubated for 20 min at 37°C; they were then diluted (1∶5) into the standard assay mixture, which contained the substrate only. The enzymatic activity was followed as described above. Control samples were prepared by pre-incubating the same amounts of APEH without the inhibitors and then diluted in the standard assay mixture.

[6] = Enzymatic stability in 10% FBS; format: in vitro ADME; details: method as ref 19, data not shown
BHK cells = assay: Cytotoxicity in BHK cells; format: cell-based, Baby Hamster; details: 100 µM, 24 h or 48 h; data not shown
Method: The cells were plated in 12-well plates, to a confluence of 60% for the 24-h incubations, and 40% for 48-h exposure to PIs. These treatments were initiated 24-h after the plating of the cells. Phase-contrast images of the cells were taken just before the lysis of the cells for protein analysis, using a Lica DM6000 inverted microscope.

human APEH = target: T2, human APEH (Homo sapiens, UniProt P13798); assay: Inhibition of human APEH purified from Caco-2 cells; format: biochemical; details: human APEH from Caco-2 cells, Ac-Ala-pNA; data not shown
T2 construct: Partial purification of human APEH and proteasome was carried out from protein extracts of Caco-2 cell; endogenous in cells; host or cells: Caco-2
T2 sequence (P13798 1-732): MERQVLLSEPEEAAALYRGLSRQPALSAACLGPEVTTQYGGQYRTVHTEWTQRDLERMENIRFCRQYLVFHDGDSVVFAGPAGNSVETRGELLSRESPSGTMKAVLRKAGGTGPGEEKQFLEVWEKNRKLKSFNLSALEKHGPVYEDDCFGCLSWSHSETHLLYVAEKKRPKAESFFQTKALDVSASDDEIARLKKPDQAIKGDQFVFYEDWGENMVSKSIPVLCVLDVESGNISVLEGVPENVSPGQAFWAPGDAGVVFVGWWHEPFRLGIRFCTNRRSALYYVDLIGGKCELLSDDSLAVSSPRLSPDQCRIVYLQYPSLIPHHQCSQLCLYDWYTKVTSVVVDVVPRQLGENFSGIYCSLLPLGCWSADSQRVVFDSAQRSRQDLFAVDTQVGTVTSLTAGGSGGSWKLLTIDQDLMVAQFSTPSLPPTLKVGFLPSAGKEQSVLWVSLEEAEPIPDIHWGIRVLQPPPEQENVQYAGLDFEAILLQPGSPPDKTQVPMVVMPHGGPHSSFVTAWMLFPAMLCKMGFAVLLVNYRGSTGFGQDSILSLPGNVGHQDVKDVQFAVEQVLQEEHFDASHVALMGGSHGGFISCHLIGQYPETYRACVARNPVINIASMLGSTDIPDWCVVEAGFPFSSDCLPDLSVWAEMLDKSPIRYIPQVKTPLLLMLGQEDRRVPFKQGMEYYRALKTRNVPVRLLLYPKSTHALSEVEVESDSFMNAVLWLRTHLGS
Method: APEH from Sulfolobus solfataricus was purified as previously reported. Partial purification of human APEH and proteasome was carried out from protein extracts of Caco-2 cell. Briefly, protein extracts (500 µg) were fractionated by gel filtration chromatography on a Superdex 200 PC 3.2/30 column connected to a SMART System (Pharmacia) equilibrated in buffer 50 mM Tris-HCl, pH 7.5, 100 mM NaCl, at 0.1 mL/min. The eluted fractions were assayed using the specific substrates for APEH and the proteasome. The active fractions were collected and used for further analysis.
as §1, §2

bovine α-chymotrypsin = bovine α-chymotrypsin (Bos taurus, UniProt P00766); assay: Serine protease selectivity panel: α-chymotrypsin; format: biochemical; details: increasing peptide concentrations, hyperbolic fit (Figure S3); read-out: IC50 towards bovine α-chymotrypsin
Thermal CD spectroscopy = format: physicochemical; details: CD 37°C to 77°C in 10°C steps, 5 mM Tris–HCl pH 7.5
Method: CD spectra were obtained on a Jasco J-715 spectropolarimeter with 400 µL of 8.0×10^-7 M protein in 5 mM Tris–HCl pH 7.5. Hellman quartz cells of 0.1-cm-path length were used in the far UV (190–250 nm). The temperature of the sample cell was regulated by a PTC-348 WI thermostat and thermal CD was performed from 250 to 195 nm by raising the cell temperature from 37°C to 77°C. The thermal CD spectra were signal-averaged by combining three scans and the baseline was corrected by subtracting a buffer spectrum. The samples were then cooled back to 37°C to monitor the final folding of the peptides.

[7] = Gel filtration (size-exclusion) analysis of oligomerization; format: physicochemical; details: 100 µM peptide
Method: Gel filtration chromatography was performed on a BioSep SEC-S2000 column equilibrated with 50 mM phosphate buffer pH 6.8, at a flow rate of 1.0 mL/min. A standard curve was built using a set of synthetic peptides with molecular weights between 1.500 amu and 2.500 amu. For this purpose, peptide aliquots were injected onto the column and a plot of KD versus log10 molecular weights (MW) was obtained, where KD = (Ve-Vo)/(VT-Vo), Ve is the elution volume of the sample, and VT and Vo are the total and void volumes of the column, respectively.

[8] = Stability in aqueous solution; format: physicochemical; details: at the concentrations required for CD analyses

Molecule: CC(C)C[C@@H](C=O)NC(=O)[C@H](CC(C)C)NC(=O)[C@H](CC(C)C)NC(=O)OCc1ccccc1 [MG132] (Cbz-Leu-Leu-Leu-aldehyde)
effect on APEH activity in Caco-2 cells (APEH in Caco-2 cells; MG132 10 µM, 48 h): no detectable effects | polyubiquitin conjugates in cell extract [1]: presence of high-molecular-mass immunoreactive species

effect on porcine APEH activity (porcine APEH [2]): ineffective
Molecule: CCCCCC/C=C/C=C\CCCCCCCC(=O)O [c9t11-CLA, cis9-trans11 CLA]
effect on APEHSs activity (APEHSs): no significant modulatory effect

Molecule: CC[C@@H](C)[C@@H](O)[C@H](C)C(=O)[C@H](C)/C=C(\C)C[C@H](C)[C@@H]1OC(=O)[C@H]1CC [ebelactone]
toxicity (LDH release) compared with MG132 (Caco-2 cells): significantly lower than that observed in culture incubated with MG132 | polyubiquitin conjugates in cell extract [1]: presence of high-molecular-mass immunoreactive species

Molecule: TILAEIKNINAD-NH2 [SsCEI 4]
toxicity (LDH release) compared with MG132 (Caco-2 cells): significantly lower than that observed in culture incubated with MG132 | cytotoxic effect (LDH activity levels) (Caco-2 cells; up to highest concentration 200 µM): not associated with any cytotoxic effect | inhibition efficiency and Ki towards APEH in presence of the entire protease set (porcine APEH [3]): comparable to those measured in the presence of the APEH alone | stability of peptide incubated with APEH (degradation / adducts) (porcine APEH [4]): neither peptide degradation nor covalent binding with APEH occurred | decrease of APEH activity in Caco-2 cells (APEH in Caco-2 cells; 200 µM, 48 h (maximum effect)): 70% | inhibition of APEH after pre-incubation with the enzyme (porcine APEH [5]): 100% | enzymatic stability in 10% FBS [6]: completely stable for at least one week | cytotoxic effects in BHK cells (BHK cells): without any cytotoxic effects | IC50 towards human APEH relative to porcine APEH (human APEH): Comparable

IC50 (bovine α-chymotrypsin): 21.9 ± 6.4 µM | structural stability with temperature (CD) (Thermal CD spectroscopy): considerable structural stability | IC50 towards human APEH relative to porcine APEH (human APEH): Comparable
Molecule: TILLEIKNINAD-NH2 [SsCEI 2]

Molecule: YAIDTILA EIKNINAD [SsCEI 3]
Measured mass value (apparent MW by gel filtration) ([7]; BioSep SEC-S2000, 50 mM phosphate pH 6.8, Da±SD, three independent determinations): 2012±150 Da | oligomerization state ([7]; size-exclusion chromatography): essentially monomers | structural stability with temperature (CD) (Thermal CD spectroscopy): considerable structural stability | effect on APEHSs activity (APEHSs): no detectable decrease

stability in aqueous solution [8]: poor stability in aqueous solution
Molecule: YAIDTILLEIKNINAD-NH2 [SsCEI 1]
